US12616750B2, “Combination therapy utilizing DNA alkylating agents and ATR inhibitors” (Merck Patent GmbH, priority 2018, dated 2026)
Where “and” joins values, the source holds several entries; their conditions need not be identical. Equal entries are not always repeated. Where two headings read alike, the source gives them in different places.

How the values were obtained:
HCC-1954 cells [1] = experiment: MNED curve-shift assay; format: cell-based; conditions: for MNED (maximum non-efficacious dose): HCC-1954
Text: (§1) Therefore a curve-shift assay system was established. In a first step, a dose-response curve (DRC) is obtained by treating a certain cell line with an inhibitor. The maximum non-efficacious dose (MNED) can be derived from this DRC. MNED is the highest dose, that can be added to a certain cell line without affecting the viability. The activity of the ADC is confirmed in a separate experiment. Finally, a combination experiment can be conducted. Therefore, the ADC and ADC plus inhibitor at MNED are added to the cells. The inhibitor is tested in parallel at MNED as a control. Due to the application of inhibitor at MNED, no reduction in cell viability caused by the inhibitor is expected. Three outcomes are possible: 1) The combination of ADC plus inhibitor is equipotent as the ADC only. […] Such a result would be interpreted as depotentiation. […] In this case, the potency of the ADC is potentiated.
(§2) Potentiation effects are expressed as dose-reduction indices (DRI), which can be calculated by dividing the IC50-value of ADC by the IC50-value of ADC plus inhibitor according to eq. 1
(§3) Curve-shift assays were conducted as follows: The cell number and viability was determined using ViCell™-XR (Beckman Coulter) and seeded in opague 96-well plate (10k viable cells/well). After seeding, the plate was incubated (37° C., 5% C02) in a humid chamber overnight. Compounds were diluted in the appropriate medium, added to the cells and the plate was incubated (37° C., 5% CO2, 6 d) in a humid chamber. After 30 min equilibration at room temperature, CellTiter-Glo reagent (Promega) was added. After the plate was shaken (3 min, 550 rpm, rt) it was incubated (10 min, rt) and luminescence was read on a synergy 4 plate reader (BioTek). Evaluation was performed using GraphPad Prism version 6.05. Therefor luminescence values were normalized to luminescence values of non-treated cells and dose-response was fitted with 4-point logistic fit.
(§4) The determination of dose-reduction indices (DRI) in a maximum non-efficacious dose (MNED) curve-shift assay is a 3-step process as depicted exemplarily in FIG. 13. The cytotoxicity of the ADC is confirmed in a cell viability assay in an initial step. […] In the second step. the MNED of the ATRi was determined. […] In order to obtain a full […] for the combination, the starting concentration of the ADC was lowered compared to the experiment in step 1.

MDA-MB-453 cells [2] = experiment: Dose-matrix combination assay (synergy score, Loewe model); format: cell-based
Method: (§5) Dose-matrix combination assays were performed as described above, but performed in opague 384-well plates (2k viable cells/well). Compounds were added using Tecan D300e liquid. Protein solutions were supplemented with 0.3% Tween-20 (final) and diluted to 1 μM. All wells were normalized to the maximum amount of DMSO (maximum 0.4%) or Tween-20 added. Read out of luminescence was performed on Envision 2104 Multilabel Reader (Perkin Elmer) and data were evaluated using Genedata Screener® version 14.0.6-Standard (Genedata AG). Luminescence values were normalized to luminescence of non-treated cells and dose-response was fitted using Smart Fit. Synergy scores were calculated using LOEWE synergy model.
(§6) The screening of synergistic drug combinations can be accomplished by performing a dose-matrix assay. Therefore, two drugs are serial diluted and mixed at every dose level, yielding a dose-matrix. The drug combination can be additive if the effects of the combination are identical to the added effects of the single agents. However, the effects of the combination might also be stronger than the activity of the single agents. This scenario is termed synergy, whereas weaker combination effects compared to the single agents are termed antagonism. A dose-matrix assay is depicted schematically in FIG. 2 which illustrates the outcomes of a dose-matrix assay: additivity, antagonism and synergy.

NCI-N87 cells = experiment: as above; format: cell-based
Method: as §5, §6

[3] = Xenograft experiment, tolerability (body weight); parameters: species or system H2d Rag2 mice; conditions: mouse, in vivo
Method: The tolerability of the anti-cancer treatment was assessed considering the overall condition of the animal as well as body-weight changes of the mice (FIG. 22).

NCI-N87 xenografts = experiment: Xenograft experiment, therapeutic efficacy; conditions: single agent: αHER2-6 1.0 mg/kg i.v. single dose; ATRi 50 mg/kg per oral once daily 14 d
Method: Female H2d Rag2 mice, 6-8 weeks old, were obtained from Taconic Biosciences, LLC. A xenograft was established by harvesting NCI-N87 cells from cell culture, mixing the cells 1:1 with Matrigel and injecting 2.5×10^6 cells subcutaneously into the flank of the mice. The tumor volume was assessed twice weekly by length measurements in two dimensions using calipers. The volume was calculated following eq. 3 where the length L is the longest tumor length and W is the shortest tumor length.
After an initial tumor growth phase, mice were randomized and assigned to treatment groups comprising 10 animals. The initial tumor volume amounted to approximately 100 mm^3 when treatment started. Vehicle treated mice obtained a solution of 0.5% Methocel, 0.25% Tween-20 in water. […] Mice were weighted twice weekly to assess the body-weight during the treatment period. The criteria to terminate the study for single animals were skin ulcerations, tumor length exceeding 15 mm or tumor exceeding 10% of the body weight. In addition, body weight loss was a criterium for termination if body weight loss exceeded 20% accompanied with a haggard appearance, body weight loss exceeded 20% on three successive days or if body weight loss exceeded 25% of the adjusted body weight.

HCC-1954 cells [4] = experiment: Dose-matrix combination assay (synergy score, Loewe model); format: cell-based
Method: as §5, with “Read out of luminescence was performed on Envision 2104 Multilabel Reader (Perkin Elmer) and data were evaluated using Genedata Screener® version 14.0.6-Standard (Genedata AG).” left out
as §6
The screening was conducted by serial diluting the duocarmycin derivative DUBA (10) and the DDR inhibitors. […] DUBA was combined in a dose-matrix assay with hycanthone. The cell viability was measured after 6 d of treatment using the CellTiter-Glo assay kit. The signals of the cell viability assay were normalized to untreated cells and fitted. […] By subtracting the modeled data from the fitted data, an excess matrix was generated. The excess matrix can be considered as a visualization of the differences between model and actual data which also highlights spots of either high synergy or antagonism. The quantification of the combination effects, however, was performed by calculating synergy scores. […] Besides synergy score, the potency of the drugs in monotherapy was obtained from these experiments. […] The potency was obtained from this dose-response curve.
The scattering of S was determined in a sham control experiment to define a cutoff for classifying a combination as truly synergistic or antagonistic. Thus seven different compounds were combined with itself on four different cell lines and the three-σ confidence interval was calculated around the mean of the measurement. […] For the sake of convenience, the cutoff was set to a value of ±1.
Synergy scores (S) were obtained from the combination experiments that indicated additivity […] if model and actual response were equal. […] The magnitude of the score determined the extent of the combination effects.

HCC-1954 cells [5] = experiment: Cytotoxicity (cell viability, CellTiter-Glo, 6 d); format: cell-based; conditions: Homo sapiens, HCC1954, HCC-1954
Method: as §5, with “Read out of luminescence was performed on Envision 2104 Multilabel Reader (Perkin Elmer) and data were evaluated using Genedata Screener® version 14.0.6-Standard (Genedata AG).” left out
After 6 d of treatment, CellTiter-Glo luminescent assay was performed and the luminescence was read on Envision Reader. The results were analyzed using GeneData Screener as described before.

[6] = evaluated in vivo; cited from earlier work
SK-BR-3 cells = experiment: MNED curve-shift assay; format: cell-based
Text: as §1, §2, §3, §4

MDA-MB-453 cells [7] = experiment: MNED curve-shift assay; format: cell-based
Text: as §1, §2, §3, §4

SK-OV-3 cells = experiment: MNED curve-shift assay; format: cell-based
Text: as §1, §2, §3, §4

Calu-3 cells = experiment: MNED curve-shift assay; format: cell-based
Text: as §1, §2, §3, §4

BT-474 cells = experiment: MNED curve-shift assay; format: cell-based
Text: as §1, §2, §3, §4

MDA-MB-468 cells [8] = experiment: MNED curve-shift assay; format: cell-based
Text: as §1, §2, §3, §4

JIMT-1 cells = experiment: MNED curve-shift assay; format: cell-based
Text: as §1, §2, §3, §4

MCF7 cells = experiment: Cytotoxicity (cell viability); format: cell-based; conditions: Homo sapiens; MCF7 (EGFR −, MET −), Table 10
Method: as §3, §5

MDA-MB-468 cells [9] = experiment: Cytotoxicity (cell viability, CellTiter-Glo, 6 d); format: cell-based; conditions: Homo sapiens, MDA-MB-468; read-out: IC50
A549 cells = experiment: Dose-matrix combination assay (synergy score, Loewe model); format: cell-based; conditions: combination with AZD6738; A549 (EGFR-positive), 6 d
Method: as §5, §6

[10] = ATRi alone, mean ± SD, read-out: Cytotoxicity IC50
[11] = combination with ADC αHER2-2, HCC-1954
[12] = combination with DUBA, HCC-1954, 6 d, S ± SD, cutoff ±1
[13] = combination with AZD6738, HCC-1954, 6 d

Question: For `C[C@@H]1COCCN1c1cc(-c2ccnn2C)c2ccnc(-c3ccn[nH]3)c2n1` [ATRi 1], which “MNED (maximum non-efficacious dose)” value (HCC-1954 cells [1]) is on record?
Answer: 40 nM

Question: And the “effect on cell viability at MNED” value (HCC-1954 cells [1]; HCC-1954, at 40 nM, inhibitor alone (quality control))?
Answer: did not reduce cell viability

Question: And the “Synergy score S” value (MDA-MB-453 cells [2])?
Answer: 13.3±0.3 and 11.4 ± 1.4

Question: And the “Synergy score S” value (NCI-N87 cells)?
Answer: 7.1±0.8 and 6.1±0.4

Question: And the “tolerability (conclusion)” value [3]?
Answer: well tolerated

Question: And the “tumor response (tumor volume)” value (NCI-N87 xenografts)?
Answer: transient tumor stasis was induced until day 8

Question: What about the “Synergy score S” value (HCC-1954 cells [4]) of the same molecule?
Answer: 12.5±1.7 and 12.0±0.6

Question: What does the source list for `Cc1nc(S(C)(=O)=O)ccc1-c1cc(N2CCOC[C@H]2C)nc2c(-c3ccn[nH]3)nccc12` [BAY73]?
Answer: MNED (maximum non-efficacious dose) (HCC-1954 cells [1]): 14 nM; IC50 (HCC-1954 cells [5]; [10]): 120 ± 30 nM; Synergy score S (HCC-1954 cells [4]; [11]): 14.4±1.1; Synergy score S (HCC-1954 cells [4]; [12]): 12.4±0.8

Question: What does the source list for `COc1c(O)c2c(c3cc(C(=O)N4CCc5c4c(O)c(OC)c4[nH]c(C(=O)N6CC7CC78C6=CC(=O)c6[nH]cc(C)c68)cc54)[nH]c13)CCN2C(N)=O` (stereo not drawn) [CC-1065]?
Answer: antitumor activity [6]: moderate antitumor activity; toxicity [6]: hepatic toxicity limited its effectiveness

Question: For `Nc1ccn([C@@H]2O[C@H](CO)[C@@H](O)C2(F)F)c(=O)n1` [Gemcitabine], which “Synergy score S” value (MDA-MB-453 cells [2]; combination with AZD6738, MDA-MB-453) is on record?
Answer: 1.6±1.2

Question: What about the “Synergy score S” value (NCI-N87 cells; combination with AZD6738, NCI-N87) of the same molecule?
Answer: 1.1±0.5

Question: And the “Synergy score S” value (HCC-1954 cells [4]; [13])?
Answer: 6.9±0.3

Question: Which results are given for `CNCc1ccc(-c2cc(-c3nc(-c4ccc(S(=O)(=O)C(C)C)cc4)cnc3N)on2)cc1` [VE-822]?
Answer: MNED (maximum non-efficacious dose) (HCC-1954 cells [1]): 250 nM; MNED (maximum non-efficacious dose) (SK-BR-3 cells): 125 nM; MNED (maximum non-efficacious dose) (MDA-MB-453 cells [7]): 40 nM; MNED (maximum non-efficacious dose) (SK-OV-3 cells): 125 nM; MNED (maximum non-efficacious dose) (Calu-3 cells): 80 nM; MNED (maximum non-efficacious dose) (BT-474 cells): 1000 nM; MNED (maximum non-efficacious dose) (MDA-MB-468 cells [8]): 300 nM; MNED (maximum non-efficacious dose) (JIMT-1 cells): 80 nM; IC50 (HCC-1954 cells [5]; [10]): 900 ± 400 nM; Synergy score S (HCC-1954 cells [4]; [11]): 5.7±0.3; Synergy score S (HCC-1954 cells [4]; [12]): 5.3±0.6

Question: For `COC(=O)c1cc2c3c(cc(O)c2[nH]1)N(C(=O)c1cc2cc(OC)c(OC)c(OC)c2[nH]1)C[C@H]3CCl` [compound 13], which IC50 (MCF7 cells) is on record?
Answer: 0.06 ± 0.02 nM

Question: What about the IC50 (HCC-1954 cells [5]; duocarmycin variant alone, mean ± SD or mean (individual values), read-out: IC50) of the same molecule?
Answer: 0.3 ± 0.1 nM

Question: And the IC50 (MDA-MB-468 cells [9])?
Answer: 0.14 ± 0.07 nM

Question: And the “Synergy score S” value (A549 cells)?
Answer: additive effects

Question: And the “Synergy score S” value (HCC-1954 cells [4]; [13])?
Answer: 4.1 ± 0.4

Question: And the “Synergy score S” value (HCC-1954 cells [4]; combination with AZD6738, HCC-1954, 6 d, listed as DSA (13))?
Answer: 4.1±0.4
